Results on five molecules are retold here after US6759420B1, “Arylalkanoyl derivatives, processes for their preparation, their use and pharmaceutical compositions containing them” (Aventis Pharma Deutschland GmbH, priority 1999, dated 2004).

Structures can show the parent of a compound that is named as a salt. Where two headings read alike, the source gives them in different places.

Data set [1] concerns the target T1, factor Xa (Homo sapiens, UniProt P00742). Briefly: Factor Xa assay (Test 1a), chromogenic. It is filed as biochemical. Further details: purchased Enzyme Research Laboratories, Inc; South Bend, Ind. The settings on record: in vitro factor Xa assay Test 1a; human factor Xa 0.5 nM, substrate S-2765 140 μM, 25° C.; Ki from IC50 corrected for substrate competition. Put shortly:
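Purified human factor Xa (0.5 nM) in TBS-PEG pH 7.8 was preincubated 10 min with compound, then S-2765 (140 μM) added; initial rate read at 405 nm, 25° C. IC50 from linear regression of relative rate vs log concentration; Ki by substrate-competition correction using Km.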

The test system of a further data set is thrombin and factor Xa. The settings on record: via anti-thrombin III; cited from earlier work.
For data set [2] the following is noted: TAP at levels giving less than about two fold aPTT prolongation; heparin at doses causing a five fold increase in aPTT; cited from earlier work.
For data set [3], the target named is T1, factor Xa. The settings on record: background statement; cited from earlier work.
The conditions of data set [4]: recombinantly-produced inhibitor, cited from earlier work; for bleeding time compared to other anticoagulants: animal model systems; for clotting in thromboplastin-induced, ligated jugular vein model of deep vein thrombosis: animal model.
The conditions of data set [5]: subcutaneous; cited from earlier work.

T1 sequence (P00742 235-488 limits assumed): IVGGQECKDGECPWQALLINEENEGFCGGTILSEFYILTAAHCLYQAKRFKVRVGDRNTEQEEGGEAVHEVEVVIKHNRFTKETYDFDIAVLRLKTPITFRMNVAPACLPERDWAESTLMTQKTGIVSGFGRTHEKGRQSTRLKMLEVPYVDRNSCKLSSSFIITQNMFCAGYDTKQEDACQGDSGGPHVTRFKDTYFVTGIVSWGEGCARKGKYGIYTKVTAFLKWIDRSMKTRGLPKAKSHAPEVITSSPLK
T1 sequence (P00742 41-179 limits assumed): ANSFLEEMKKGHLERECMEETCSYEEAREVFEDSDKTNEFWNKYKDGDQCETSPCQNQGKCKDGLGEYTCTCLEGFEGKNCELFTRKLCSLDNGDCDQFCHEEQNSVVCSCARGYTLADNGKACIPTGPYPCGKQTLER

Consider `COc1ccc(CNC(=O)C(CCCNC(=N)N)NC(=O)C(NC(=O)C(Cc2ccc(C(=N)N)cc2)C2CCCCC2)C2CCCCC2)cc1` [Example 202, 2-(S)-{2-[3-(4-Carbamimidoyl-phenyl)-2-cyclohexyl-propionylamino]-2-cyclohexyl-acetylamino}-5-guanidino-pentanoic acid 4-methoxy-benzylamide trilfuoroacetic acid salt], for which the affinity on factor Xa [1], expressed as Ki, was 28 nM.
On the same count and under the same terms, then `N=C(N)c1ccc(CC(C(=O)N[C@H](C(=O)NCC2CCN(C(=N)N)CC2)C2CCCCC2)c2ccccc2F)cc1` (stereo partly drawn) [Example 214, 3-(4-Carbamimidoyl-phenyl)-N-{(S)-[(1-carbamimidoyl-piperidin-4-ylmethyl)-carbamoyl]-cyclohexyl-methyl}-2-(2-fluoro-phenyl)-propionamide trifluoroacetic acid salt], with 47 nM.
Take heparin: in the data set with thrombin and factor Xa, the “thrombin inactivated faster than factor Xa” value was “approximately 100 times”. Also, the “"high-shear" arterial thrombosis and "reduced flow" caused by polyester (DACRON) graft” value in data set [2] is given as “did not prevent thrombosis”.
For the molecule “tick anticoagulant peptide (YNRLCIKPRDWIDECDSNEGGERAYFRNGKGGCDSFWICPEDHTGADYYSSYRDCFNACI; UniProt P17726 1-60, looked up) [TAP, reference compound]”, the Ki with factor Xa [3] is roughly 0.5 nM. For the same molecule, in data set [4], the “bleeding time compared to other anticoagulants” value was “decrease bleeding time” and the “clotting in thromboplastin-induced, ligated jugular vein model of deep vein thrombosis” value was “prevent clotting”. In addition, in data set [2], the “"high-shear" arterial thrombosis and "reduced flow" caused by polyester (DACRON) graft” value was “effectively prevents”.

B1: antistasin (protein, UniProt P15358 18-136, looked up)
Antistasin: QGPFGPGCEEAGCPEGSACNIITDRCTCSGVRCRMHCPHGFQRSRYGCEFCKCRLEPMKATCDISECPEGMMCSRLTNKCDCKIDINCRKTCPNGLKRDKLGCEYCECRPKRKLIPRLS
As to B1, in the data set with factor Xa [3], the Ki is 0.05 nM. Moreover, in data set [4], the “bleeding time compared to other anticoagulants” value is on record as “decrease bleeding time” and the “clotting in thromboplastin-induced, ligated jugular vein model of deep vein thrombosis” value is listed as “prevent clotting”. In data set [5], the “treatment in thromboplastin-induced model of disseminated intravascular coagulation” value was “effective treatment”.

A word on the Ki: it is a measure of affinity in units of concentration, obtained from inhibition or displacement.
